According to PubChem BioAssay AID256 (DTP/NCI, 2004):
Where “and” joins values, the source holds several entries; their conditions need not be identical. Equal entries are not always repeated. Toxic doses and inconclusive results are not listed. The calls were made as follows: active = survival T/C of 150% or more; inactive = T/C below 125% in these data.

System: CD2F1 mice, L1210 leukemia ip, survival T/C
Assay: NCI In Vivo Anticancer Drug Screen. Data for tumor model L1210 Leukemia (intraperitoneal) in CD2F1 (CDF1) mice
Conditions: higher = longer survival
Method in brief: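 Implant tumor; dose compound or vehicle; measure endpoint in both groups; report treated divided by control.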

[1] = endpoint: mean survival time, dose: 100.0 mg/kg/injection, schedule: Q04DX003 (ip), vehicle: saline with Tween-80
[2] = endpoint: mean survival time, dose: 200.0 mg/kg/injection, schedule: Q04DX003 (ip), vehicle: saline with Tween-80
[3] = endpoint: mean survival time, dose: 400.0 mg/kg/injection, schedule: Q04DX003 (ip), vehicle: saline with Tween-80
[4] = endpoint: mean survival time, dose: 100.0 mg/kg/injection, schedule: Q01DX009 (ip), vehicle: saline with Tween-80

Measured: T/C

CC/C=C/C(C)OC(=N)C(Cl)(Cl)Cl (stereo unspecified)
inactive: endpoint: mean survival time, dose: 100.0 mg/kg/injection, schedule: Q04DX002 (ip), vehicle: saline with Tween-80 103 % of control | endpoint: mean survival time, dose: 200.0 mg/kg/injection, schedule: Q04DX002 (ip), vehicle: saline with Tween-80 100 % of control | endpoint: mean survival time, dose: 400.0 mg/kg/injection, schedule: Q04DX002 (ip), vehicle: saline with Tween-80 97 % of control

CC(/C=N/N(C)C)=N\N(C)C
inactive: endpoint: mean survival time, dose: 50.0 mg/kg/injection, schedule: Q01DX009 (ip), vehicle: saline 108 % of control | endpoint: mean survival time, dose: 100.0 mg/kg/injection, schedule: Q01DX009 (ip), vehicle: saline 96 % of control

COc1ccc2c(c1)N(CCC1CCCCN1C)c1ccccc1S2 (stereo unspecified)
inactive: endpoint: mean survival time, dose: 6.25 mg/kg/injection, schedule: Q04DX003 (ip), vehicle: saline 93 % of control and 100 % of control | endpoint: mean survival time, dose: 12.5 mg/kg/injection, schedule: Q04DX003 (ip), vehicle: Klucel (hydroxypropylcellulose) (HPC) 97 % of control | endpoint: mean survival time, dose: 12.5 mg/kg/injection, schedule: Q04DX003 (ip), vehicle: saline 98 % of control and 100 % of control | endpoint: mean survival time, dose: 25.0 mg/kg/injection, schedule: Q04DX003 (ip), vehicle: Klucel (hydroxypropylcellulose) (HPC) 95 % of control | endpoint: mean survival time, dose: 25.0 mg/kg/injection, schedule: Q04DX003 (ip), vehicle: saline 101 % of control and 102 % of control | endpoint: mean survival time, dose: 50.0 mg/kg/injection, schedule: Q04DX003 (ip), vehicle: Klucel (hydroxypropylcellulose) (HPC) 97 % of control | endpoint: mean survival time, dose: 50.0 mg/kg/injection, schedule: Q04DX003 (ip), vehicle: saline 106 % of control | endpoint: mean survival time, dose: 100.0 mg/kg/injection, schedule: Q04DX003 (ip), vehicle: Klucel (hydroxypropylcellulose) (HPC) 103 % of control

NC(=O)c1ncn(C2OC(CO)C(O)C2O)c1O (stereo unspecified)
inactive: endpoint: mean survival time, dose: 12.5 mg/kg/injection, schedule: Q01DX009 (ip), vehicle: Klucel (hydroxypropylcellulose) (HPC) 122 % of control | endpoint: mean survival time, dose: 25.0 mg/kg/injection, schedule: Q01DX009 (ip), vehicle: Klucel (hydroxypropylcellulose) (HPC) 113 % of control and 120 % of control | endpoint: mean survival time, dose: 200.0 mg/kg/injection, schedule: Q01DX009 (ip), vehicle: Klucel (hydroxypropylcellulose) (HPC) 116 % of control and 106 % of control | endpoint: mean survival time, dose: 400.0 mg/kg/injection, schedule: Q01DX009 (ip), vehicle: Klucel (hydroxypropylcellulose) (HPC) 120 % of control and 93 % of control and 110 % of control

CN(C)c1ccc(/C=N\O)c2c1CCC2
inactive: [1] 102 % of control | [2] 102 % of control | [3] 100 % of control

Cn1c(=O)c2[nH]c(-c3cccnc3)nc2n(C)c1=O
inactive: endpoint: mean survival time, dose: 12.5 mg/kg/injection, schedule: Q01DX005 (ip), vehicle: distilled water + Tween-80 92 % of control | endpoint: mean survival time, dose: 25.0 mg/kg/injection, schedule: Q01DX005 (ip), vehicle: distilled water + Tween-80 98 % of control | endpoint: mean survival time, dose: 50.0 mg/kg/injection, schedule: Q01DX005 (ip), vehicle: distilled water + Tween-80 98 % of control | endpoint: mean survival time, dose: 100.0 mg/kg/injection, schedule: Q01DX005 (ip), vehicle: distilled water + Tween-80 98 % of control | endpoint: mean survival time, dose: 200.0 mg/kg/injection, schedule: Q01DX005 (ip), vehicle: distilled water + Tween-80 116 % of control

CCN=c1cc2oc3cc(NCC)c(C)cc3c(-c3ccccc3C(=O)OCC)c-2cc1C
inactive: endpoint: mean survival time, dose: 2.5 mg/kg/injection, schedule: Q04DX003 (ip), vehicle: saline 101 % of control | endpoint: mean survival time, dose: 5.0 mg/kg/injection, schedule: Q04DX003 (ip), vehicle: saline 109 % of control | endpoint: mean survival time, dose: 10.0 mg/kg/injection, schedule: Q04DX003 (ip), vehicle: saline 90 % of control and 102 % of control

CN1C(=O)CN=C(c2ccccn2)c2cc(Cl)ccc21
inactive: endpoint: mean survival time, dose: 100.0 mg/kg/injection, schedule: Q01DX009 (ip), vehicle: saline sonified 97 % of control | endpoint: mean survival time, dose: 200.0 mg/kg/injection, schedule: Q01DX009 (ip), vehicle: saline sonified 90 % of control | endpoint: mean survival time, dose: 400.0 mg/kg/injection, schedule: Q01DX009 (ip), vehicle: saline sonified 102 % of control

O=C(Nc1cccc2c(OC(=O)C(Cl)Cl)c(N=Nc3ccc(S(=O)(=O)Nc4nccs4)cc3)cc(N=Nc3ccc(S(=O)(=O)Nc4nccs4)cc3)c12)C(Cl)Cl (tested in a mixture with another compound)
inactive: endpoint: mean survival time, dose: 3.12 mg/kg/injection, schedule: Q01DX009 (ip), vehicle: saline with Tween-80 96 % of control and 101 % of control | endpoint: mean survival time, dose: 6.25 mg/kg/injection, schedule: Q01DX009 (ip), vehicle: saline with Tween-80 95 % of control and 101 % of control | endpoint: mean survival time, dose: 12.5 mg/kg/injection, schedule: Q01DX009 (ip), vehicle: saline with Tween-80 96 % of control and 102 % of control | endpoint: mean survival time, dose: 25.0 mg/kg/injection, schedule: Q01DX009 (ip), vehicle: saline with Tween-80 101 % of control and 106 % of control | endpoint: mean survival time, dose: 50.0 mg/kg/injection, schedule: Q01DX009 (ip), vehicle: saline with Tween-80 101 % of control and 110 % of control | [4] 113 % of control and 112 % of control | endpoint: median survival time, dose: 100.0 mg/kg/injection, schedule: Q01DX009 (ip), vehicle: saline with Tween-80 113 % of control | endpoint: median survival time, dose: 200.0 mg/kg/injection, schedule: Q01DX009 (ip), vehicle: saline with Tween-80 106 % of control | endpoint: median survival time, dose: 400.0 mg/kg/injection, schedule: Q01DX009 (ip), vehicle: saline with Tween-80 100 % of control

CCCCC(CC)C(O)CC(O)CC (stereo unspecified)
inactive: [1] 92 % of control | [2] 91 % of control | [3] 91 % of control

c1ccc2nc3ccccc3cc2c1
inactive: [4] 101 % of control | endpoint: mean survival time, dose: 200.0 mg/kg/injection, schedule: Q01DX009 (ip), vehicle: saline with Tween-80 103 % of control

O=C1OC(=O)c2c1ccc1c(O)cccc21
inactive: endpoint: mean survival time, dose: 100.0 mg/kg/injection, schedule: Q01DX001 (ip), vehicle: saline with Tween-80 101 % of control | endpoint: mean survival time, dose: 200.0 mg/kg/injection, schedule: Q01DX001 (ip), vehicle: saline with Tween-80 90 % of control | endpoint: mean survival time, dose: 400.0 mg/kg/injection, schedule: Q01DX001 (ip), vehicle: saline with Tween-80 108 % of control

Cc1cc(Cc2c(C)c(C)c(Cc3cc(C)cc(C(C)(C)C)c3O)c(C)c2C)c(O)c(C(C)(C)C)c1
inactive: endpoint: mean survival time, dose: 100.0 mg/kg/injection, schedule: Q04DX003 (ip), vehicle: saline sonified 90 % of control | endpoint: mean survival time, dose: 200.0 mg/kg/injection, schedule: Q04DX003 (ip), vehicle: saline sonified 88 % of control | endpoint: mean survival time, dose: 400.0 mg/kg/injection, schedule: Q04DX003 (ip), vehicle: saline sonified 93 % of control
